Patent US20170334899A1, “AMINO-SUBSTITUTED ISOTHIAZOLES” (Bayer Pharma Aktiengesellschaft, priority 2014, published 2017)
Where “and” joins values, the source holds several entries; their conditions need not be identical. Identical values can stand only once.

Key:
[1] = test system: human cervical tumor cell line HeLa (ATCC CCL-2); assay: SAC-Formation - Nocodazole-Induced Assay; assay type: cell-based; conditions: Homo sapiens, HeLa, 24 h, HeLa cells, nocodazole 0.1 μg/ml together with test compound, decrease of mitotic cells (phospho-histone H3 Ser10)
Procedure, shortened: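 Loss of phospho-histone H3 Ser10-positive cells, counted against Hoechst-stained nuclei by high-content imaging, marked mitotic breakthrough. Compounds (0.005–20 μM, 0.5% DMSO) were co-dosed with 0.1 μg/ml nocodazole onto HeLa cells for 24 h at 37 °C. Curves were fitted with a four-parameter Hill equation.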

[2] = molecular target: T1, catalytic domain of human Bub1 (amino acids 704-1085) (Homo sapiens, UniProt O43683); assay: Bub1 kinase assay (TR-FRET); assay type: biochemical; conditions: 10 μM ATP, avg, read-out: Bub1 avg (IC50 [mol/l])
T1 construct: catalytic domain of human Bub1 (amino acids 704-1085); His6 (N); made in house; host or cells: insect cells (Hi5)
Procedure, shortened: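 Readout is the 665/620 nm TR-FRET ratio from anti-phosphoserine antibody, Eu-labelled anti-mouse IgG and streptavidin-XL665, scaled between no-enzyme and uninhibited controls. Reaction: 1 μM biotinylated peptide, 10 μM ATP, 60 min, 22 °C, after 15 min compound preincubation with His6-Bub1 (704-1085, insect-expressed, ~200 ng/ml).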

T1 sequence (O43683 704-1085): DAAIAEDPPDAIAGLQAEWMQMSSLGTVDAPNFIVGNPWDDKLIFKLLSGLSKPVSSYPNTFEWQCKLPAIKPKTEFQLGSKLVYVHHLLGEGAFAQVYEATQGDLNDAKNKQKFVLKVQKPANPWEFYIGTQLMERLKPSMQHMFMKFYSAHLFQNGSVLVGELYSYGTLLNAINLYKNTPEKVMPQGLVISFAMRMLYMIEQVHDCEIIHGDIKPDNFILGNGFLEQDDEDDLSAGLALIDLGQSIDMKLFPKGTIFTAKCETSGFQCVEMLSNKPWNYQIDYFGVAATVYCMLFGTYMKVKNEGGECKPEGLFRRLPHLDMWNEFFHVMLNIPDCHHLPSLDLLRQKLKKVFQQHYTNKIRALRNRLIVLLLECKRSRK

IC50 [1] | IC50 [2] | Compound
0.038 µM | 19 µM | Cc1nsc(Nc2cncc(C(F)(F)F)n2)c1C(=O)Nc1ccc(F)c(OC2CCN(CC(F)F)CC2)c1 [Example 268, N-(3-{[1-(2,2-difluoroethyl)piperidin-4-yl]oxy}-4-fluorophenyl)-3-methyl-5-{[6-(trifluoromethyl)pyrazin-2-yl]amino}-1,2-thiazole-4-carboxamide]
0.12 µM | > 20 µM | Cc1nsc(Nc2cncc(C(F)(F)F)n2)c1C(=O)Nc1ccc(F)c(OC2CCN(CCF)CC2)c1 [Example 269, N-(4-fluoro-3-{[1-(2-fluoroethyl)piperidin-4-yl]oxy}phenyl)-3-methyl-5-{[6-(trifluoromethyl)pyrazin-2-yl]amino}-1,2-thiazole-4-carboxamide]
0.95 µM | > 20 µM | Cc1nsc(Nc2cnc(C(F)(F)F)cn2)c1C(=O)Nc1ccc(C(=O)NC2CN(CC(F)(F)F)C2)cc1 [Example 270, 3-methyl-N-(4-{[1-(2,2,2-trifluoroethyl)azetidin-3-yl]carbamoyl}phenyl)-5-{[5-(trifluoromethyl)pyrazin-2-yl]amino}-1,2-thiazole-4-carboxamide]
1.1 µM | > 20 µM | Cc1nsc(Nc2cnc(C(F)(F)F)cn2)c1C(=O)Nc1ccc(C(=O)NC2CN(CC(F)F)C2)cc1 [Example 271, N-(4-{[1-(2,2-difluoroethyl)azetidin-3-yl]carbamoyl}phenyl)-3-methyl-5-{[5-(trifluoromethyl)pyrazin-2-yl]amino}-1,2-thiazole-4-carboxamide]
0.23 µM | > 20 µM | Cc1nsc(Nc2cncc(C(F)(F)F)n2)c1C(=O)Nc1ccc(C(=O)N2CCN(CC(F)(F)F)CC2)cc1 [Example 272, 3-methyl-N-(4-{[4-(2,2,2-trifluoroethyl)piperazin-1-yl]carbonyl}phenyl)-5-{[6-(trifluoromethyl)pyrazin-2-yl]amino}-1,2-thiazole-4-carboxamide]
1.1 µM | > 20 µM | Cc1nsc(Nc2cncc(C(F)(F)F)n2)c1C(=O)Nc1ccc(C(=O)N2CCN(CC(F)F)CC2)cc1 [Example 273, N-(4-{[4-(2,2-difluoroethyl)piperazin-1-yl]carbonyl}phenyl)-3-methyl-5-{[6-(trifluoromethyl)pyrazin-2-yl]amino}-1,2-thiazole-4-carboxamide]
0.14 µM | > 20 µM | Cc1nsc(Nc2cncc(C(F)(F)F)n2)c1C(=O)Nc1ccc(C(=O)N2CCN(CCF)CC2)cc1 [Example 274, N-(4-{[4-(2-fluoroethyl)piperazin-1-yl]carbonyl}phenyl)-3-methyl-5-{[6-(trifluoromethyl)pyrazin-2-yl]amino}-1,2-thiazole-4-carboxamide]
0.84 µM | > 20 µM | CCN1CCN(C(=O)c2ccc(NC(=O)c3c(C)nsc3Nc3cncc(C(F)(F)F)n3)cc2)CC1 [Example 275, N-{4-[(4-ethylpiperazin-1-yl)carbonyl]phenyl}-3-methyl-5-{[6-(trifluoromethyl)pyrazin-2-yl]amino}-1,2-thiazole-4-carboxamide]
0.35 µM | > 20 µM | Cc1nsc(Nc2cncc(C(F)(F)F)n2)c1C(=O)Nc1ccc(OCCO)nc1 [Example 276, N-[6-(2-hydroxyethoxy)pyridin-3-yl]-3-methyl-5-{[6-(trifluoromethyl)pyrazin-2-yl]amino}-1,2-thiazole-4-carboxamide]
0.65 µM | > 20 µM and 18 µM | Cc1nsc(Nc2cnc(C(F)(F)F)cn2)c1C(=O)Nc1ccc(OCCO)nc1 [Example 277, N-[6-(2-hydroxyethoxy)pyridin-3-yl]-3-methyl-5-{[5-(trifluoromethyl)pyrazin-2-yl]amino}-1,2-thiazole-4-carboxamide]
0.19 µM | > 20 µM | Cc1nsc(Nc2cncc(C(F)(F)F)n2)c1C(=O)Nc1ccc(OCCCO)nc1 [Example 278, N-[6-(3-hydroxypropoxy)pyridin-3-yl]-3-methyl-5-{[6-(trifluoromethyl)pyrazin-2-yl]amino}-1,2-thiazole-4-carboxamide]
0.12 µM | > 20 µM and 19 µM | Cc1nsc(Nc2cnc(C(F)(F)F)cn2)c1C(=O)Nc1ccc(OCCCO)nc1 [Example 279, N-[6-(3-hydroxypropoxy)pyridin-3-yl]-3-methyl-5-{[5-(trifluoromethyl)pyrazin-2-yl]amino}-1,2-thiazole-4-carboxamide]
0.67 µM | > 20 µM | Cc1nsc(Nc2cncc(C(F)(F)F)n2)c1C(=O)Nc1ccc(C(=O)NC2CN(CC(F)(F)F)C2)cc1 [Example 280, 3-methyl-N-(4-{[1-(2,2,2-trifluoroethyl)azetidin-3-yl]carbamoyl}phenyl)-5-{[6-(trifluoromethyl)pyrazin-2-yl]amino}-1,2-thiazole-4-carboxamide]
1.2 µM | > 20 µM | Cc1nsc(Nc2cnc3ccccc3n2)c1C(=O)Nc1cccc(NS(=O)(=O)C2CCN(CC(F)(F)F)CC2)c1 [Example 281, 3-methyl-5-(quinoxalin-2-ylamino)-N-[3-({[1-(2,2,2-trifluoroethyl)piperidin-4-yl]sulfonyl}amino)phenyl]-1,2-thiazole-4-carboxamide]
6.7 µM | > 20 µM | Cc1nsc(Nc2cnc3ccccc3n2)c1C(=O)Nc1cccc(NS(=O)(=O)C2CCN(CC(F)F)CC2)c1 [Example 282, N-[3-({[1-(2,2-difluoroethyl)piperidin-4-yl]sulfonyl}amino)phenyl]-3-methyl-5-(quinoxalin-2-ylamino)-1,2-thiazole-4-carboxamide]
3.3 µM | > 20 µM | Cc1nsc(Nc2cnc3ccccc3n2)c1C(=O)Nc1cccc(NS(=O)(=O)C2CCN(CCC(F)(F)F)CC2)c1 [Example 283, 3-methyl-5-(quinoxalin-2-ylamino)-N-[3-({[1-(3,3,3-trifluoropropyl)piperidin-4-yl]sulfonyl}amino)phenyl]-1,2-thiazole-4-carboxamide]
0.076 µM | > 20 µM | Cc1nsc(Nc2cnc(C(F)(F)F)cn2)c1C(=O)Nc1cccc(NC(=O)OC(C)(C)C)c1 [Example 284, 3-tert-butyl (3-{[(3-methyl-5-{[5-(trifluoromethyl)pyrazin-2-yl]amino}-1,2-thiazol-4-yl)carbonyl]amino}phenyl)carbamate]
2.2 µM | > 20 µM | Cc1nsc(Nc2cnc3ccccc3n2)c1C(=O)Nc1cccc(NS(=O)(=O)C2CN(CC(F)(F)F)C2)c1 [Example 285, 3-methyl-5-(quinoxalin-2-ylamino)-N-[3-({[1-(2,2,2-trifluoroethyl)azetidin-3-yl]sulfonyl}amino)phenyl]-1,2-thiazole-4-carboxamide]
4.1 µM | > 20 µM | Cc1nsc(Nc2cnc3ccccc3n2)c1C(=O)Nc1cccc(NS(=O)(=O)C2CN(CC(F)F)C2)c1 [Example 286, N-[3-({[1-(2,2-difluoroethyl)azetidin-3-yl]sulfonyl}amino)phenyl]-3-methyl-5-(quinoxalin-2-ylamino)-1,2-thiazole-4-carboxamide]
7.2 µM | > 20 µM | Cc1nsc(Nc2cnc3ccccc3n2)c1C(=O)Nc1cccc(NS(=O)(=O)C2CN(CCF)C2)c1 [Example 287, N-[3-({[1-(2-fluoroethyl)azetidin-3-yl]sulfonyl}amino)phenyl]-3-methyl-5-(quinoxalin-2-ylamino)-1,2-thiazole-4-carboxamide]
7.7 µM | > 20 µM | Cc1nsc(Nc2cnc3ccccc3n2)c1C(=O)Nc1cccc(NS(=O)(=O)C2CN(CCC(F)(F)F)C2)c1 [Example 288, 3-methyl-5-(quinoxalin-2-ylamino)-N-[3-({[1-(3,3,3-trifluoropropyl)azetidin-3-yl]sulfonyl}amino)phenyl]-1,2-thiazole-4-carboxamide]
1.9 µM | > 20 µM | Cc1nsc(Nc2cnc3ccccc3n2)c1C(=O)Nc1cccc(NS(=O)(=O)C2CCN(CC(F)(F)F)C2)c1 (stereo not shown) [Example 289, 3-methyl-5-(quinoxalin-2-ylamino)-N-[3-({[1-(2,2,2-trifluoroethyl)pyrrolidin-3-yl]sulfonyl}amino)phenyl]-1,2-thiazole-4-carboxamide]
2 µM | > 20 µM | Cc1nsc(Nc2cnc3ccccc3n2)c1C(=O)Nc1cccc(NS(=O)(=O)C2CCN(C(=O)OC(C)(C)C)C2)c1 (stereo not shown) [Example 290, tert-butyl 3-{[3-({[3-methyl-5-(quinoxalin-2-ylamino)-1,2-thiazol-4-yl]carbonyl}amino)phenyl]sulfamoyl} pyrrolidine-1-carboxylate]
1.4 µM | > 20 µM | Cc1nsc(Nc2cnc3ccccc3n2)c1C(=O)Nc1cccc(NS(=O)(=O)C2CCCN(C(=O)OCc3ccccc3)C2)c1 (stereo not shown) [Example 291, benzyl 3-{[3-({[3-methyl-5-(quinoxalin-2-ylamino)-1,2-thiazol-4-yl]carbonyl}amino)phenyl]sulfamoyl} piperidine-1-carboxylate]
0.98 µM | > 20 µM | Cc1nsc(Nc2cnc(C(F)(F)F)cn2)c1C(=O)Nc1ccc(OCCCNCC(F)(F)F)nc1 [Example 292, 3-methyl-N-(6-{3-[(2,2,2-trifluoroethyl)amino]propoxy}pyridin-3-yl)-5-{[5-(trifluoromethyl)pyrazin-2-yl]amino}-1,2-thiazole-4-carboxamide]
3.1 µM | > 20 µM | Cc1nsc(Nc2cnc(C(F)(F)F)cn2)c1C(=O)Nc1ccc(OCCCNCC(F)F)nc1 [Example 293, N-(6-{3-[(2,2-difluoroethyl)amino]propoxy}pyridin-3-yl)-3-methyl-5-{[5-(trifluoromethyl)pyrazin-2-yl]amino}-1,2-thiazole-4-carboxamide]
